Assay results from ChEMBL document CHEMBL3399947, “Structure activity relationship of selective GABA uptake inhibitors” (Bioorg Med Chem, 2015).

Experiments:
Assay type in all cases: cell-based
[1] = molecular target: Sodium- and chloride-dependent GABA transporter 1 (Mus musculus, UniProt P31648); experiment: Inhibition of mouse mGAT1 expressed in HEK293 cells assessed as inhibition of [3H]GABA uptake after 3 mins incubation by TopCount microplate scintillation counting analysis
[2] = molecular target: T1, GABA transporter 2 (Mus musculus, UniProt P31651); experiment: Inhibition of mouse mGAT2 expressed in HEK293 cells assessed as inhibition of [3H]GABA uptake after 3 mins incubation by TopCount microplate scintillation counting analysis
T1 sequence (P31651 whole entry): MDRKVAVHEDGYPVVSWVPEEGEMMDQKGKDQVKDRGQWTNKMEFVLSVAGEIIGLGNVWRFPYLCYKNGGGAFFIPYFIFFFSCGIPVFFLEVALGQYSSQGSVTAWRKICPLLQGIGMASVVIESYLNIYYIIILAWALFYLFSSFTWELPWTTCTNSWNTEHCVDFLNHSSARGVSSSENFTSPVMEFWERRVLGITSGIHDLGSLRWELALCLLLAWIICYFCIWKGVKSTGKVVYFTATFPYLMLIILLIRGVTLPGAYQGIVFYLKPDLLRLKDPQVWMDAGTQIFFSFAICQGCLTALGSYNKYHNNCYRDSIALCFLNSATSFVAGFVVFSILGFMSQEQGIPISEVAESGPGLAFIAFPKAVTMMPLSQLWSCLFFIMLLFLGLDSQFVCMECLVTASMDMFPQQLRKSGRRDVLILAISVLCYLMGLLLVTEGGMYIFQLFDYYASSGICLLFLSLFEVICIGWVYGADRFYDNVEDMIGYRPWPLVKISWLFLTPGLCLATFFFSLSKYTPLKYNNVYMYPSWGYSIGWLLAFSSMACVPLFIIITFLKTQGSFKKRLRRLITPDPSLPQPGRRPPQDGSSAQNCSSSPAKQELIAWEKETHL

[3] = molecular target: T2, GABA transporter 3 (Mus musculus, UniProt P31649); experiment: Inhibition of mouse mGAT3 expressed in HEK293 cells assessed as inhibition of [3H]GABA uptake after 3 mins incubation by TopCount microplate scintillation counting analysis
T2 sequence (P31649 whole entry): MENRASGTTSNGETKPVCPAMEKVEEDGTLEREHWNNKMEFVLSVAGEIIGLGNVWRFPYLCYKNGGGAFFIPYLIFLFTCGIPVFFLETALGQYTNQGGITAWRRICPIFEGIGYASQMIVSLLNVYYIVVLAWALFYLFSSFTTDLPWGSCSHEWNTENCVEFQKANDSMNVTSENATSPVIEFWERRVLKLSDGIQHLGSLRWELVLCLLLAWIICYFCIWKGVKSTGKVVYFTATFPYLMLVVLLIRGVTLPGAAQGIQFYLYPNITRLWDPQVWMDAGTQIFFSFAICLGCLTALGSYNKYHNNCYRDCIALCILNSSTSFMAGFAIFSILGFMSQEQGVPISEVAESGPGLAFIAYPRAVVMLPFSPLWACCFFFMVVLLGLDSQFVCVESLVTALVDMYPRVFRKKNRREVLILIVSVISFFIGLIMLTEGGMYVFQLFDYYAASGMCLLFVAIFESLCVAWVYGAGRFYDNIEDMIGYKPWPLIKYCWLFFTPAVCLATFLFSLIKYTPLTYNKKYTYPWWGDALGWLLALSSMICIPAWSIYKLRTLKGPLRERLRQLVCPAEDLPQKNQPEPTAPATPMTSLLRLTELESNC

[4] = molecular target: T3, GABA transporter 4 (Mus musculus, UniProt P31650); experiment: Inhibition of mouse mGAT4 expressed in HEK293 cells assessed as inhibition of [3H]GABA uptake after 3 mins incubation by TopCount microplate scintillation counting analysis
T3 sequence (P31650 whole entry): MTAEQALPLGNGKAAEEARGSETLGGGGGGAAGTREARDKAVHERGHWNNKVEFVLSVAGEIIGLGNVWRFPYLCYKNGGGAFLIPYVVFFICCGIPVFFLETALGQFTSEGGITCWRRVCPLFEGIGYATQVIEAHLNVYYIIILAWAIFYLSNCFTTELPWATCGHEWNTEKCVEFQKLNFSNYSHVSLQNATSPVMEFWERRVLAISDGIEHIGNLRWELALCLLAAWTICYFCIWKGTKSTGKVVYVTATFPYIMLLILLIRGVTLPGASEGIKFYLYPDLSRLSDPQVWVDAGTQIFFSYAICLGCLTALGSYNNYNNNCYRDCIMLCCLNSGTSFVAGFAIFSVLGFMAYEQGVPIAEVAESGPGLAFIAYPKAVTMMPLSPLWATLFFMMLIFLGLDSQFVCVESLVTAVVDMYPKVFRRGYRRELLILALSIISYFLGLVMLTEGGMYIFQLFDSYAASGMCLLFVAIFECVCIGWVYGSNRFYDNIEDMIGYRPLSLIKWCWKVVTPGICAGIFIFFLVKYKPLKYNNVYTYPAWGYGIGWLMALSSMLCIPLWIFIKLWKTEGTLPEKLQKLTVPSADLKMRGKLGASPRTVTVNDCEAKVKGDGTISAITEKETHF

Row | SMILES | IC50 ([1]; read-out: IC50) [µM] | IC50 ([2]; read-out: IC50) [µM] | IC50 ([3]; read-out: IC50) [µM] | IC50 ([4]; read-out: IC50) [µM] | IC50 ([3]; hek293, read-out: IC50) [µM] | IC50 ([4]; hek293, read-out: IC50) [µM] | IC50 ([4]; read-out: pIC50 (converted)) [µM] | IC50 ([3]; read-out: pIC50 (converted)) [µM] | IC50 ([1]; read-out: pIC50 (converted)) [µM] | IC50 ([2]; read-out: pIC50 (converted)) [µM]
1 | Cc1ccsc1C(=CCCN(C)[C@@H]1CCCC[C@@H]1C(=O)O)c1sccc1C | 917 | 94.9 | 328 | 380 |  |  |  |  |  | 
2 | Cc1ccsc1C(=CCCN(C)[C@H]1CCCC[C@@H]1C(=O)O)c1sccc1C | 264 | 62.2 | 478 | 263 |  |  |  |  |  | 
3 | Cc1ccsc1C(=CCCN(C)[C@@H]1CCCC[C@H]1C(=O)O)c1sccc1C | 194 | 133 | 633 | 551 |  |  |  |  |  | 
4 | CN(CCON=C(c1ccccc1)c1ccccc1)[C@@H]1CCCC[C@H]1C(=O)O | > 2000 | 880 |  |  | > 2000 | > 2000 |  |  |  | 
5 | CN(CCC=C1c2ccccc2CCc2ccccc21)[C@@H]1CCCC[C@H]1C(=O)O | 614 | 119 | 966 | 883 |  |  |  |  |  | 
6 | CN(CCC=C1c2ccccc2CCc2ccccc21)[C@H]1CCCC[C@@H]1C(=O)O | 962 | 139 | 1240 | 715 |  |  | 724 |  |  | 
7 | CN(CCOC(c1ccc(C(F)(F)F)cc1)c1ccc(C(F)(F)F)cc1)[C@@H]1CCCC[C@H]1C(=O)O | 421 | 97.1 | 393 | 299 |  |  |  |  |  | 
8 | Cc1ccsc1C(=CCCN(C)[C@H]1CCCC[C@H]1C(=O)O)c1sccc1C | 562 | 21.6 | 941 | 289 |  |  |  |  |  | 
9 | CN(CCON=C(c1ccccc1)c1ccccc1)[C@H]1CCCC[C@H]1C(=O)O | > 1000 | 417 | > 1000 | > 1000 |  |  |  |  |  | 
10 | CN(CCON=C(c1ccccc1)c1ccccc1)[C@@H]1CCCC[C@@H]1C(=O)O | > 1000 | 443 | > 1000 | > 1000 |  |  |  |  |  | 
11 | CN(CCC=C1c2ccccc2CCc2ccccc21)[C@H]1CCCC[C@H]1C(=O)O | 1360 | 147 | 1840 | 649 |  |  |  | 1450 |  | 
12 | CN(CCC=C1c2ccccc2CCc2ccccc21)[C@@H]1CCCC[C@@H]1C(=O)O | 1820 | 88.9 | 1030 | 1450 |  |  |  |  |  | 
13 | CN(CCOC(c1ccc(C(F)(F)F)cc1)c1ccc(C(F)(F)F)cc1)[C@H]1CCCC[C@H]1C(=O)O | 631 | 90 | 392 | 303 |  |  |  |  |  | 
14 | CN(CCOC(c1ccc(C(F)(F)F)cc1)c1ccc(C(F)(F)F)cc1)[C@@H]1CCCC[C@@H]1C(=O)O | 445 | 63.1 | 336 | 539 |  |  |  |  |  | 
15 | CN(CCON=C(c1ccccc1)c1ccccc1)C1CCCC=C1C(=O)O (stereo not given) | > 2000 | 814 | > 2000 | > 2000 |  |  |  |  |  | 
16 | CN(CCC=C1c2ccccc2CCc2ccccc21)C1CCCC=C1C(=O)O (stereo not given) | 425 | 81 | 687 | 821 |  |  |  |  | 537 | 
17 | CN(CCOC(c1ccc(C(F)(F)F)cc1)c1ccc(C(F)(F)F)cc1)C1CCCC=C1C(=O)O (stereo not given) | > 1000 | 107 | > 1000 | > 1000 |  |  |  |  |  | 

Row | SMILES | IC50 ([1]; read-out: IC50) [µM] | IC50 ([2]; read-out: IC50) [µM] | IC50 ([3]; read-out: IC50) [µM] | IC50 ([4]; read-out: IC50) [µM] | IC50 ([3]; hek293, read-out: IC50) [µM] | IC50 ([4]; hek293, read-out: IC50) [µM] | IC50 ([4]; read-out: pIC50 (converted)) [µM] | IC50 ([3]; read-out: pIC50 (converted)) [µM] | IC50 ([1]; read-out: pIC50 (converted)) [µM] | IC50 ([2]; read-out: pIC50 (converted)) [µM]
18 | Cc1ccsc1C(=CCCN(C)[C@H]1CCCC[C@H]1CO)c1sccc1C | 215 | 27 | 168 | 146 |  |  |  |  |  | 
19 | Cc1ccsc1C(=CCCN(C)[C@@H]1CCCC[C@@H]1CO)c1sccc1C | 239 | 34.8 | 133 | 178 |  |  |  |  |  | 
20 | CN(CCON=C(c1ccccc1)c1ccccc1)[C@H]1CCCC[C@H]1CO | 415 | 49.1 | 295 | 136 |  |  |  |  |  | 
21 | CN(CCON=C(c1ccccc1)c1ccccc1)[C@@H]1CCCC[C@@H]1CO | 426 | 76.6 | 349 | 341 |  |  |  |  |  | 77.6
22 | CN(CCC=C1c2ccccc2CCc2ccccc21)[C@H]1CCCC[C@H]1CO | 191 | 28.3 | 148 | 126 |  |  |  |  |  | 
23 | CN(CCC=C1c2ccccc2CCc2ccccc21)[C@@H]1CCCC[C@H]1C(=O)O (racemic) | 972 | 125 | 985 | 844 |  |  |  |  |  | 
24 | CN(CCOC(c1ccc(C(F)(F)F)cc1)c1ccc(C(F)(F)F)cc1)[C@@H]1CCCC[C@H]1C(=O)O (racemic) | 426 | 138 | 433 | 392 |  |  |  |  |  | 
25 | Cc1ccsc1C(=CCCN1CCNC(C(=O)O)C1)c1sccc1C (racemic) | 95.6 | > 1000 | > 1000 | > 1000 |  |  |  |  |  | 
26 | O=C(O)C1CN(CCON=C(c2ccccc2)c2ccccc2)CCN1 (racemic) | 216 | > 1000 | > 1000 | > 1000 |  |  |  |  |  | 
27 | O=C(O)C1CN(CCOC(c2ccc(C(F)(F)F)cc2)c2ccc(C(F)(F)F)cc2)CCN1 (racemic) | 83 | 401 | > 1000 | 1760 |  |  |  |  |  | 
28 | CCN1CCNC(C(=O)O)C1 (racemic) | > 1000 | > 1000 | > 1000 | > 1000 |  |  |  |  |  | 
29 | Cc1ccsc1C(=CCCN1CCNCC1C(=O)O)c1sccc1C (racemic) | 195 | 1400 | 1660 | 883 |  |  |  |  |  | 
30 | O=C(O)C1CNCCN1CCON=C(c1ccccc1)c1ccccc1 (racemic) | > 1000 | > 1000 | > 1000 | > 1000 |  |  |  |  |  | 
31 | CCN1CCNCC1C(=O)O (racemic) | > 1000 | > 1000 | > 1000 | > 1000 |  |  |  |  |  | 
32 | Cc1ccsc1C(=CCCN(C)C1CCCC=C1C(=O)O)c1sccc1C (stereo in doubt; (E1)-6a) | 170 | 76.7 | 765 | 468 |  |  |  |  |  | 
33 | Cc1ccsc1C(=CCCN(C)C1CCCC=C1C(=O)O)c1sccc1C (stereo in doubt; (E2)-6a) | 403 | 67 | 584 | 413 |  |  |  |  |  | 
34 | CNCCC=C1c2ccccc2CCc2ccccc21 [NORTRIPTYLINE] | 389 | 171 | 270 | 249 |  |  |  |  |  | 
